Legend:
Assay in all cases: radiometric filter-binding kinase assay, Kinase HotSpot
Conditions in all cases: compound 0.5 µM; ATP 10 µM
CDK6 CCND3 (human) = CDK6 CCND3 (human) (UniProt P30281+Q00534)
LTK (human) = LTK (human) (UniProt P29376)
CDK4 CCND3 (human) = CDK4 CCND3 (human) (UniProt P30281+P11802)
CDK5 CDK5R1 p35 (human) = CDK5 CDK5R1 p35 (human) (UniProt Q00535+Q15078)
DYRK1B (human) = DYRK1B (human) (UniProt Q9Y463)
CDK1 CCNB1 (human) = CDK1 CCNB1 (human) (UniProt P06493+P14635)
CDK3 CCNE1 (human) = CDK3 CCNE1 (human) (UniProt Q00526+P24864)
Sequence of CDK3 CCNE1 (human) (P24864 whole entry, looked up): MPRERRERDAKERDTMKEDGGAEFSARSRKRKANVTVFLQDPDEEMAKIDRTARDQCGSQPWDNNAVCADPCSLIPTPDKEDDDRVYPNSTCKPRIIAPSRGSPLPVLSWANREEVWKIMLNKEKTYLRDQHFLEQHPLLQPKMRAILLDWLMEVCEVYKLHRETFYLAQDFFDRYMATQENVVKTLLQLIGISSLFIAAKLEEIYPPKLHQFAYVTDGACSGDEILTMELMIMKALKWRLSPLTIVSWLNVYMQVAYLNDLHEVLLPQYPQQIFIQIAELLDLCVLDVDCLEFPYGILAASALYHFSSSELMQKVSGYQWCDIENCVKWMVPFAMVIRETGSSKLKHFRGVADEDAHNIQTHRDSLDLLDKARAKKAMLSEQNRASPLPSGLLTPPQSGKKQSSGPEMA
Sequence of CDK3 CCNE1 (human) (Q00526 whole entry, looked up): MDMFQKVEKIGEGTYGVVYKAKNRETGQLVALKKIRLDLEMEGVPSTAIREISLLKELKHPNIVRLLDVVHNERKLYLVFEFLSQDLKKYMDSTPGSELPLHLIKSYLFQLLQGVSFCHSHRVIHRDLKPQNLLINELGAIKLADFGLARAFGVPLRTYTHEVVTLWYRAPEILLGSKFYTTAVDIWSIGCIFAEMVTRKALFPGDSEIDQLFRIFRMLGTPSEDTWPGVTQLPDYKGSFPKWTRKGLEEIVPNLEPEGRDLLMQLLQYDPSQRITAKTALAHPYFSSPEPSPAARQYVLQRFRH

CDK9 CCNT1 (human) = CDK9 CCNT1 (human) (UniProt P50750+O60563)
CDK4 CCND1 (human) = CDK4 CCND1 (human) (UniProt P24385+P11802)
CDK7 CCNH MNAT1 (human) = CDK7 CCNH MNAT1 (human) (UniProt P50613+P51948+P51946)
CDK5 CDK5R1 p25 (human) = CDK5 CDK5R1 p25 (human) (UniProt Q00535+Q15078)
CDK9 CCNK (human) = CDK9 CCNK (human) (UniProt O75909+P50750)
CDK6 CCND1 (human) = CDK6 CCND1 (human) (UniProt Q00534+P24385)
CDK1 CCNA2 (human) = CDK1 CCNA2 (human) (UniProt P06493+P20248)
Sequence of CDK1 CCNA2 (human) (P06493 whole entry, looked up): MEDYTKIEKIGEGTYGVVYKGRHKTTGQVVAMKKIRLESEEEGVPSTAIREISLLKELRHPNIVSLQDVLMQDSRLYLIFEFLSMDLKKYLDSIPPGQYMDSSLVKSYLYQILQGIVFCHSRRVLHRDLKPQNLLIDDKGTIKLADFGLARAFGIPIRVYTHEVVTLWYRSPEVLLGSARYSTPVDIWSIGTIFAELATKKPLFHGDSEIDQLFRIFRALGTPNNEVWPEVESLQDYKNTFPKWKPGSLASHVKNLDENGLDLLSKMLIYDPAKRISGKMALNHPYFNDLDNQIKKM
Sequence of CDK1 CCNA2 (human) (P20248 whole entry, looked up): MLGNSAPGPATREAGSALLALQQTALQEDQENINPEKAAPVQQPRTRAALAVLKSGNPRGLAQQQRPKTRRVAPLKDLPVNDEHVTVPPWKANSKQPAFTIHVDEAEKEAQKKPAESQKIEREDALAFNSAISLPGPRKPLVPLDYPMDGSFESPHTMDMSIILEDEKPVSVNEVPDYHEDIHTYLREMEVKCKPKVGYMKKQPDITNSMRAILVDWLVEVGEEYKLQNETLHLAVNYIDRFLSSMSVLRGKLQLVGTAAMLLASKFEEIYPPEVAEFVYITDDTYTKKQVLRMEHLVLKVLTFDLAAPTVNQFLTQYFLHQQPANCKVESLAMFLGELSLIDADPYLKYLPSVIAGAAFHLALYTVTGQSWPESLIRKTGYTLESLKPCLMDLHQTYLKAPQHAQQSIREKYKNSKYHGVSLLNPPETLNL

PRKCH (human) = PRKCH (human) (UniProt P24723)
Sequence of PRKCH (human) (P24723 whole entry, looked up): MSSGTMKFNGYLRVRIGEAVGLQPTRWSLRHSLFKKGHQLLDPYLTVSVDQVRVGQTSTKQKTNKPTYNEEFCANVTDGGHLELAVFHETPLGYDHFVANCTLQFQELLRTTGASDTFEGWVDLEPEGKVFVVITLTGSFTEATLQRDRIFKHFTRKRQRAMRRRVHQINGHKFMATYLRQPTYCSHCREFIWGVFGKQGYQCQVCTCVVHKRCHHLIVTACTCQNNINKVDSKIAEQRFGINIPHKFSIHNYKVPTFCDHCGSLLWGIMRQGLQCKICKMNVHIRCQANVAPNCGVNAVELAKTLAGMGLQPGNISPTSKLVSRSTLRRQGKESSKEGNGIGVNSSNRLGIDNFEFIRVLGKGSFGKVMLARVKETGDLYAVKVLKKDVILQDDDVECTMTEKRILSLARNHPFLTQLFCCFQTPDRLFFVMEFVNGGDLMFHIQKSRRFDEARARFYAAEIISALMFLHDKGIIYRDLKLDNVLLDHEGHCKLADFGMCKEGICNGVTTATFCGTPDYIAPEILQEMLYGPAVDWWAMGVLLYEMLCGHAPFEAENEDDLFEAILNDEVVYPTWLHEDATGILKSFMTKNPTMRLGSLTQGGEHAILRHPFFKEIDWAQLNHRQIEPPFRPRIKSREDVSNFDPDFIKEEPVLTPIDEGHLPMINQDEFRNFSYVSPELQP

STK33 (human) = STK33 (human) (UniProt Q9BYT3)
Sequence of STK33 (human) (Q9BYT3 whole entry, looked up): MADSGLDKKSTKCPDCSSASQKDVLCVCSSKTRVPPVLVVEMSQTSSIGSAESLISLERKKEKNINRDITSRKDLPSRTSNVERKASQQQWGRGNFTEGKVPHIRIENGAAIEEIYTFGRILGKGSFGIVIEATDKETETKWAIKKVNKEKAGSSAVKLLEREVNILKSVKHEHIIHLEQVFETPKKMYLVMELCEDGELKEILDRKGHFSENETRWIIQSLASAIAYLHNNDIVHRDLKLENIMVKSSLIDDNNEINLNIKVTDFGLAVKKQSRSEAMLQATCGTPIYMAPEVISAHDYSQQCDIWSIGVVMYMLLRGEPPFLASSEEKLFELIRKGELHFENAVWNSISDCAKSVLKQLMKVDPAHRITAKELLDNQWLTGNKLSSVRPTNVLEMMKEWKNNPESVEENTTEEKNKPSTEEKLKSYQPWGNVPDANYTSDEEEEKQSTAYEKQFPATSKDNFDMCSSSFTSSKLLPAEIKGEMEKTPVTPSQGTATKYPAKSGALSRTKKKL

CDK2 CCNA2 (human) = CDK2 CCNA2 (human) (UniProt P24941+P20248)
Sequence of CDK2 CCNA2 (human) (P20248 whole entry, looked up, other chains not shown): as the sequence (P20248 whole entry, looked up) above

CDK2 CCNE1 (human) = CDK2 CCNE1 (human) (UniProt P24941+P24864)
Sequence of CDK2 CCNE1 (human) (P24864 whole entry, looked up, other chains not shown): as the sequence (P24864 whole entry, looked up) above

MAP3K7 TAB1 (human) = MAP3K7 TAB1 (human) (UniProt O43318+Q15750)
CSNK1A1 (human) = CSNK1A1 (human) (UniProt P48729)
FYN (human) = FYN (human) (UniProt P06241)

Sequence of CDK1 CCNB1 (human) (P06493 whole entry, looked up): as the sequence (P06493 whole entry, looked up) above
Sequence of CDK1 CCNB1 (human) (P14635 whole entry, looked up): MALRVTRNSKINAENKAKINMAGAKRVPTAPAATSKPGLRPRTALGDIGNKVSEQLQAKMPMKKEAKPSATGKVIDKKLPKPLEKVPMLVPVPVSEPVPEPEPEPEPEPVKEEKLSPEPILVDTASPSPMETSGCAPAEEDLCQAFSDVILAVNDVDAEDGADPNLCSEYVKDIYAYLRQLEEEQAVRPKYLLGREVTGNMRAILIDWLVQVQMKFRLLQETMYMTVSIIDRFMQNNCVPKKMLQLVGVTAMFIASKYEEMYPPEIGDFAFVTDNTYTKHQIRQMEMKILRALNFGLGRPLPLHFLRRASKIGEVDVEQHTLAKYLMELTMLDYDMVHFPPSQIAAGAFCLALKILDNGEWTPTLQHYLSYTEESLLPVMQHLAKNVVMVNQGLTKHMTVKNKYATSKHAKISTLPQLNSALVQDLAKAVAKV
Sequence of LTK (human) (P29376 whole entry, looked up): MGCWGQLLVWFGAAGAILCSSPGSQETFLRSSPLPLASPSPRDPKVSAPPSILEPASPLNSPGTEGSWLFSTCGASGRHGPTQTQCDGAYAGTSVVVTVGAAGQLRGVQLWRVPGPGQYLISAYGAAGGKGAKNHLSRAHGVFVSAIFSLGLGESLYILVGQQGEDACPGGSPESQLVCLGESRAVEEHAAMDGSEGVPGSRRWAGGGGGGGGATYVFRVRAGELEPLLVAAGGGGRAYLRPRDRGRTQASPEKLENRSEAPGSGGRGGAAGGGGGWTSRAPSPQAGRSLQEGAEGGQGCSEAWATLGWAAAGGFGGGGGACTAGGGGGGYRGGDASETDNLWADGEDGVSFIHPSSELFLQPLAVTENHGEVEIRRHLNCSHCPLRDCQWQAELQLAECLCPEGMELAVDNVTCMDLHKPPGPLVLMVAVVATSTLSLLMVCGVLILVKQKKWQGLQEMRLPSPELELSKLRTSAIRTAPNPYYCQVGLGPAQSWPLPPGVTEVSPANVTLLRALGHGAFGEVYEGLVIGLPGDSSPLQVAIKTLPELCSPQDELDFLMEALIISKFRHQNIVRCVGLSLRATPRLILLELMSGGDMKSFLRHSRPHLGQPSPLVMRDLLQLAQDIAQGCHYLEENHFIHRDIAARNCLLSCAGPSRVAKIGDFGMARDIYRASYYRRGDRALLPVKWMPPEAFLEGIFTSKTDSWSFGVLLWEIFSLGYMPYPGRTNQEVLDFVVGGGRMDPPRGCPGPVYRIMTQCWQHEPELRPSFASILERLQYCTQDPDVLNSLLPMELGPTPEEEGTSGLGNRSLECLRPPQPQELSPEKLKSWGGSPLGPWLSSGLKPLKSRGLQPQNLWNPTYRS
Sequence of DYRK1B (human) (Q9Y463 whole entry, looked up): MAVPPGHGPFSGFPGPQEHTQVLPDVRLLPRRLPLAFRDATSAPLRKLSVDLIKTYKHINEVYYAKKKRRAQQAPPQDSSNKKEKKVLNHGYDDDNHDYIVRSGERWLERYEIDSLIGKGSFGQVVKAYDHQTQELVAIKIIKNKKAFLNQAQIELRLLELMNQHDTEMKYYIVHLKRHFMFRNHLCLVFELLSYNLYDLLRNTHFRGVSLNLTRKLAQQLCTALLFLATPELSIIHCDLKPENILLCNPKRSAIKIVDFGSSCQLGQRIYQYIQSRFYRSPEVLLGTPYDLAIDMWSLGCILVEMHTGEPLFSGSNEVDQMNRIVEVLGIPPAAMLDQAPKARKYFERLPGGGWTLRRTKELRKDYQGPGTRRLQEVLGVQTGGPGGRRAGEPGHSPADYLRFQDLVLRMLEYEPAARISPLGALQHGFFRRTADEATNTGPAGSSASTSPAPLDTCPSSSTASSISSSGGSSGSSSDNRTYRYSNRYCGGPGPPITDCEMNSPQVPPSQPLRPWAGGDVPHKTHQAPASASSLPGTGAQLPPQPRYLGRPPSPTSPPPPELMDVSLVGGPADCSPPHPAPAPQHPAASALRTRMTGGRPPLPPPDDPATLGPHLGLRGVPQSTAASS

| Structure (SMILES) | residual activity (CDK6 CCND3 (human)) [%] | residual activity (LTK (human)) [%] | residual activity (CDK4 CCND3 (human)) [%] | residual activity (CDK5 CDK5R1 p35 (human)) [%] | residual activity (DYRK1B (human)) [%] | residual activity (CDK1 CCNB1 (human)) [%] | residual activity (CDK3 CCNE1 (human)) [%] | residual activity (CDK9 CCNT1 (human)) [%] | residual activity (CDK4 CCND1 (human)) [%] | residual activity (CDK7 CCNH MNAT1 (human)) [%] | residual activity (CDK5 CDK5R1 p25 (human)) [%] | residual activity (CDK9 CCNK (human)) [%] | residual activity (CDK6 CCND1 (human)) [%] | residual activity (CDK1 CCNA2 (human)) [%] | residual activity (PRKCH (human)) [%] | residual activity (STK33 (human)) [%] | residual activity (CDK2 CCNA2 (human)) [%] | residual activity (CDK2 CCNE1 (human)) [%] | also measured |
| --- | --- | --- | --- | --- | --- | --- | --- | --- | --- | --- | --- | --- | --- | --- | --- | --- | --- | --- | --- |
| Cc1ccc(NC(=O)c2ccc(CN3CCN(C)CC3)cc2)cc1Nc1nccc(-c2cccnc2)n1 | 103 | 100 | 107 | 103 | 97.9 | 103 | 97.5 | 100 | 97.5 | 101 | 98.1 | 103 | 99 |  |  |  |  |  |  |
| O=C1c2ccccc2-[n+]2ccc3c([nH]c4ccccc43)c21 |  | 121 |  |  | 98.7 |  | 80.1 |  |  |  |  |  |  | 68 | 87.1 | 101 | 72.4 | 80.3 |  |
| c1cc(-c2cnn3cc(-c4ccc(OCCN5CCCCC5)cc4)cnc23)ccn1 | 14.8 | 95.4 | 60.7 | 67.7 | 26.2 | 79.3 | 89.9 | 65 | 35.3 | 83.7 | 68.2 | 36.7 | 21.2 | 92.2 | 95 | 37.4 | 87.7 | 77.5 | residual activity (MAP3K7 TAB1 (human)): 49.7% |
| COc1cc(OC)c(/C=C2\C(=O)Nc3ccccc32)c(OC)c1 |  | 95.3 |  |  | 99 | 83 |  |  |  |  |  |  |  | 103 | 82.2 | 89.5 | 96.3 |  | residual activity (CSNK1A1 (human)): 59.6%; residual activity (FYN (human)): 100% |
| NC(=O)Nc1sc(-c2ccc(F)cc2)cc1C(N)=O |  |  |  |  |  |  |  |  |  |  |  |  |  |  | 83.5 |  |  |  |  |
| NC(=O)c1ccc2[nH]c(-c3ccc(Oc4ccc(Cl)cc4)cc3)nc2c1 |  |  |  |  |  |  |  |  |  |  |  |  |  |  | 93.4 |  |  |  |  |
